The subject of data set [1] is cancer cells expressing both RAB6KIFL and HLA-A2. In words: Comparison of the cytotoxicity of CTLs induced by the three peptides. Type of data set: cell-based, human. As to conditions: vs RAB6KIFL-A2-9-12 and RAB6KIFL-A2-10-284. As for the experimental part: The CTLs were cocultured with each of the cancer cells, or the peptide-pulsed T2 cells, as a target cell (5×10^3/well) at the indicated effector/target ratio and a standard ^51Cr release assay was done as described previously (Yoshitake Y, et al. Clin Cancer Res 2004; 10:6437-48. Imai K, et al. Clin Cancer Res 2008; in press). Briefly, target cells were labeled with 3.7 KBq […] (Perkin Elmer Life Sciences) for 1 h at 37 degree C. in a CO2 incubator. Labeled target cells were rinsed three times, and peptide-pulsed target cells were prepared by incubating the cells with 20 micro g/mL peptide for 3 h at 37 degrees C. Target cells were mixed with effector cells in final volume of 200 micro L in flat-bottomed microtiter plates and incubated. After 6 h incubation, 50 micro L of the supernatant was collected from each well and the radioactivity was quantified using a gamma counter. The specific cytotoxicity was evaluated by calculating the percentage of specific ^51Cr release.
The potential of RAB6KIFL as an immunotherapeutic target was verified herein by identifying the HLA-A2-restricted epitope peptides and evaluating their immunogenicity. […]

The test system of the next data set is PANC1. In words: 51Cr release assay of peptide-induced CTLs against PANC1. Type of data set: cell-based, human. As to conditions: PANC1 (RAB6KIFL+, HLA-A2+); healthy donors. The text has this:
(§1) Human RAB6KIFL-derived peptides (purity>95%), carrying binding motifs for HLA-A2 (A*0201)-encoded molecules, were selected using the BIMAS software program (BioInformatics and Molecular Analysis Section, Center for Information Technology, NIH, Bethesda, Md.) and 36 peptides were synthesized (American Peptide Company, CA, USA) (Tables 1A and B). Monocyte-derived DCs were used as antigen-presenting cells to induce CTL responses against peptides presented in the context of HLA. DCs were generated in vitro culture as described previously (Yoshitake Y, et al. Clin Cancer Res 2004; 10:6437-48, Harao M, et al. Int J Cancer 2008; in press, Imai K, et al. Clin Cancer Res 2008; in press). Briefly, PBMCs isolated from a normal volunteer positive for HLA-A2 using Ficoll-Plaque (GE Healthcare UK, Ltd., Buckinghamshire, UK) solution were sorted to CD8^+ population and CD14^+ population with microbeads (Miltenyi Biotec, Bergisch Gladbach, Germany). To generate DCs, the CD14^+ population was cultured in the presence of 100 ng/mL granulocyte-macrophage colony-stimulating factor (GM-CSF; PeproTec Inc., NJ, USA) and 10 ng/mL interleukin (IL)-4 (PeproTec) in AIM-V (Invitrogen) containing 2% heat-inactivated autologous plasma. After 5 days of culture, OK-432 was added into the dish to make the DCs mature. […]
(§2) The CTLs were cocultured with each of the cancer cells, or the peptide-pulsed T2 cells, as a target cell (5×10^3/well) at the indicated effector/target ratio and a standard ^51Cr release assay was done as described previously (Yoshitake Y, et al. Clin Cancer Res 2004; 10:6437-48. Imai K, et al. Clin Cancer Res 2008; in press). […] After 6 h incubation, 50 micro L of the supernatant was collected from each well and the radioactivity was quantified using a gamma counter. The specific cytotoxicity was evaluated by calculating the percentage of specific ^51Cr release. […]

In a further data set the test system is SKHep1/Mock. The data set is described as follows: 51Cr release assay of peptide-induced CTLs against SKHep1/Mock. Type of data set: cell-based, human. The note with it: mock-transfected SKHep1. The procedure: (§3) A lentiviral vector-mediated gene transfer was performed as described previously (Imai K, et al. Clin Cancer Res 2008; 14:6487-95, Tahara-Hanaoka S, et al. Exp Hematol 2002; 30:11-7). Briefly, 17 micro-g of CSII-CMV-RfA and CSIIEF-RfA self-inactivating vectors (Miyoshi H, et al. J Virol 1998; 72: 8150-7) carrying RAB6KIFL cDNAs and 10 micro-g of pCMV-VSV-G-RSV-Rev and pCAG-HIVgp were transfected into the 293T cells grown in a 10-cm culture dish using Lipofectamine 2000 reagent (Invitrogen Corporation, Carlsbad, Calif., USA). After 60 hr of transfection, the medium was recovered and the viral particles were pelleted by ultra-centrifugation (50,000×g, 2 hr). The pellet was suspended in 50 micro-L of RPMI 1640 medium and 10 micro-L of viral suspension was added to 5×10^4 SKHep1 cells, per well in a flat-bottom 96-well plate. The expression of the transfected RAB6KIFL gene was confirmed by a Western blot analysis.
as §1, with “Germany).” for “Germany). To generate DCs, the CD14^+ population was cultured in the presence of 100 ng/mL granulocyte-macrophage colony-stimulating factor (GM-CSF; PeproTec Inc., NJ, USA) and 10 ng/mL interleukin (IL)-4 (PeproTec) in AIM-V (Invitrogen) containing 2% heat-inactivated autologous plasma. After 5 days of culture, OK-432 was added into the dish to make the DCs mature.”

The next data set deals with CaCo-2. In words: 51Cr release assay of peptide-induced CTLs against CaCo-2. Type of data set: cell-based, human. As to conditions: CaCo-2 (RAB6KIFL+, HLA-A2+); healthy donors.
Source text: as §1, §2

In a further data set the test system is SKHep1/RAB6KIFL. The data set is described as follows: 51Cr release assay of peptide-induced CTLs against SKHep1/RAB6KIFL. Type of data set: cell-based, human. As to conditions: SKHep1 transfected with RAB6KIFL gene (RAB6KIFL high, HLA-A2+). The procedure:
as §3
as §1, with “Germany).” for “Germany). To generate DCs, the CD14^+ population was cultured in the presence of 100 ng/mL granulocyte-macrophage colony-stimulating factor (GM-CSF; PeproTec Inc., NJ, USA) and 10 ng/mL interleukin (IL)-4 (PeproTec) in AIM-V (Invitrogen) containing 2% heat-inactivated autologous plasma. After 5 days of culture, OK-432 was added into the dish to make the DCs mature.”

In the next data set the test system is HLA-A2 (HHD) Tgm. In words: Autoimmune phenomenon after peptide vaccination: immunohistochemistry with anti-CD4/anti-CD8 mAb and observation. Type of data set: in vivo, mouse. The procedure: Western blotting and immunohistochemical staining of RAB6KIFL protein were performed as described previously (Nakatsura T, et al. Biochem Biophys Res Commun 2001; 281:936-44. Yoshitake Y, et al. Clin Cancer Res 2004; 10:6437-48). For Western blotting analyses of human normal tissues, a pre-made human adult normal tissue blot (Biochain, Hayward, Calif.) was used. The primary antibodies used herein, anti-RAB6KIFL polyclonal antibody, and monoclonal anti-b-actin antibody, were purchased from Bethyl Laboratories, Inc. (Montgomery, Tex., USA) and Sigma (Steinheim, Germany), respectively. Immunohistochemical staining of CD4 or CD8 in tissue specimens of HLA-A2.1 (HHD) Tgm immunized with the RAB6KIFL-A2-10-284 peptide was done as described previously (Matsuyoshi H, et al. 2004; 172:776-86).
It is very important to investigate whether the immunization with RAB6KIFL peptide induce an autoimmune reaction or not. We thus performed the immunohistochemical analysis of several vital organs with anti-CD4 and anti-CD8 mAb in HLA-A2 (HHD) Tgm after two-times vaccination with RAB6KIFL-A2-9-809 peptide, of which amino-acid sequences were completely conserved between human and mouse RAB6KIFL. […] The abnormalities frequently observed in mice affected with autoimmune diseases such as abnormal hair and skin, diarrhea and weight loss were also not observed in these mice.

Another data set relates to T2 cells. The data set is described as follows: Induction of human CTLs from PBMCs, 51Cr release assay against peptide-pulsed T2 cells. The note with it: CTLs from PBMCs of two HLA-A2-positive healthy donors, three stimulations with peptide-pulsed DCs. Type of data set: cell-based.
Source text: as §1, §2

Molecules are shown by their SMILES. Where a SMILES comes first, the peptide text is derived from it.

`CC[C@H](C)[C@H](NC(=O)[C@@H](N)CS)C(=O)N[C@@H](C)C(=O)N[C@@H](CCC(=O)O)C(=O)N[C@@H](CCC(N)=O)C(=O)N[C@@H](Cc1ccc(O)cc1)C(=O)N[C@@H](Cc1c[nH]cn1)C(=O)N[C@H](C(=O)N[C@H](C(=O)O)C(C)C)[C@@H](C)O` [RAB6KIFL-A2-9-809, CIAEQYHTV] (H-CIAEQYHTV-OH; N-terminus and C-terminus assumed): the “cytotoxicity of peptide-induced CTLs compared with CTLs induced by the other two peptides” value in data set [1] is listed as “stronger cytotoxicity”. Further, the “cytotoxicity of peptide-stimulated CTLs to PANC1” value (shortened to “cytotoxicity … to PANC1”) in the data set on PANC1 is listed as “exhibited cytotoxicity”. In the data set with SKHep1/Mock, the “cytotoxicity of peptide-induced CTLs against SKHep1/Mock” value (shortened to “cytotoxicity … against SKHep1/Mock”) is on record as “but not against SKHep1/Mock”. Further, the “cytotoxicity of peptide-stimulated CTLs to CaCo-2” value (“cytotoxicity … to CaCo-2” below) in the data set on CaCo-2 is listed as “exhibited cytotoxicity”. Further, the “cytotoxicity of peptide-induced CTLs against SKHep1/RAB6KIFL” value (from here on “cytotoxicity … against SKHep1/RAB6KIFL”) in the data set on SKHep1/RAB6KIFL is given as “exhibited cytotoxicity”. Also, the “pathologic change (lymphocyte infiltration or tissue destruction suggesting autoimmunity) in vital organs” value with HLA-A2 (HHD) Tgm (after two-times vaccination, anti-CD4 and anti-CD8 staining) was “no pathologic change”. For the same compound, the “abnormalities of autoimmune disease (abnormal hair and skin, diarrhea, weight loss)” value with HLA-A2 (HHD) Tgm (mouse, in vivo) is listed as “not observed”. Moreover, the “cytotoxic activity of induced CTLs to T2 cells pulsed with the peptide” value (shortened to “cytotoxic activity of induced CTLs”) with T2 cells is “exhibited cytotoxic activity”.

Regarding `CC(C)C[C@H](NC(=O)[C@@H](N)CC(C)C)C(=O)N[C@@H](CO)C(=O)N[C@@H](CC(=O)O)C(=O)N[C@@H](CC(=O)O)C(=O)N[C@@H](CC(=O)O)C(=O)N[C@H](C(=O)N[C@H](C(=O)N[C@H](C(=O)O)C(C)C)C(C)C)C(C)C` [RAB6KIFL-A2-9-12, LLSDDDVVV] (H-LLSDDDVVV-OH; N-terminus and C-terminus assumed), the “cytotoxicity … to PANC1” value with PANC1 is “exhibited cytotoxicity”. Besides, the “cytotoxicity … against SKHep1/Mock” value with SKHep1/Mock was “but not against SKHep1/Mock”. Moreover, the “cytotoxicity … to CaCo-2” value in the data set on CaCo-2 is reported as “exhibited cytotoxicity”. Moreover, the “cytotoxicity … against SKHep1/RAB6KIFL” value in the data set with SKHep1/RAB6KIFL is reported as “exhibited cytotoxicity”. Moreover, the “cytotoxic activity of induced CTLs” value in the data set with T2 cells is “exhibited cytotoxic activity”.

On to `CC(C)C[C@H](NC(=O)[C@@H]1CCCN1C(=O)[C@H](C)NC(=O)[C@@H](NC(=O)[C@H](CC(=O)O)NC(=O)[C@@H]1CCCN1C(=O)[C@H](CCC(N)=O)NC(=O)[C@H](C)N)[C@@H](C)O)C(=O)N1CCC[C@H]1C(=O)N[C@H](C(=O)O)C(C)C` [RAB6KIFL-A2-10-284, AQPDTAPLPV] (H-AQPDTAPLPV-OH; N-terminus and C-terminus assumed), for which, in the data set on PANC1, the “cytotoxicity … to PANC1” value was “exhibited cytotoxicity”. Moreover, in the data set on SKHep1/Mock, the “cytotoxicity … against SKHep1/Mock” value was “but not against SKHep1/Mock”. In the data set on CaCo-2, the “cytotoxicity … to CaCo-2” value was “exhibited cytotoxicity”. The “cytotoxicity … against SKHep1/RAB6KIFL” value with SKHep1/RAB6KIFL is “exhibited cytotoxicity”. Moreover, in the data set on T2 cells, the “cytotoxic activity of induced CTLs” value is given as “exhibited cytotoxic activity”.

The values above are taken from patent US9132176B2, “RAB6KIFL/KIF20A epitope peptide and vaccines containing the same” (ONCOTHERAPY SCIENCE, INC., priority 2008, dated 2015).
